Measured values from the supplement of paper PMC10307832.

Key:
Assay in all cases: relative viability (nuclei count vs DMSO), 5 days (fraction); higher = more cells survive
[1] = compound: CC1(C)CCC(CN2CCN(c3ccc(C(=O)NS(=O)(=O)c4ccc(NCC5CCOCC5)c([N+](=O)[O-])c4)c(Oc4cnc5[nH]ccc5c4)c3)CC2)=C(c2ccc(Cl)cc2)C1 [Venetoclax] + COc1cccc2cc(-c3nc([C@H]4CC[C@H](C(=O)O)CC4)n4ncnc(N)c34)[nH]c12 [OSI-027] (partner 0.5 µM)
How it was run: (§1)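 Dosing by pin tool came one day after lung cancer cell lines were seeded in 1536-well plates, using either one drug or a fixed anchor-drug dose plus five library-drug doses (not always all listed) in √10 steps. After 5 days, nuclei were counted on 4× images. Relative viability is treated-well nuclei count divided by vehicle-well nuclei count, and values are medians of duplicate plates.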

[2] = compound: Cn1cnc2c(F)c(Nc3ccc(Br)cc3Cl)c(C(=O)NOCCO)cc21 [Selumetinib] + CC1(C)CCC(c2ccc(Cl)cc2)=C(CN2CCN(c3ccc(C(=O)NS(=O)(=O)c4ccc(N[C@H](CCN5CCOCC5)CSc5ccccc5)c(S(=O)(=O)C(F)(F)F)c4)cc3)CC2)C1 [Navitoclax] (partner 0.5 µM)
How it was run: as §1

[3] = compound: Cn1cnc2c(F)c(Nc3ccc(Br)cc3Cl)c(C(=O)NOCCO)cc21 [Selumetinib] + CS(=O)(=O)CCNCc1ccc(-c2ccc3ncnc(Nc4ccc(OCc5cccc(F)c5)c(Cl)c4)c3c2)o1 [Lapatinib] (partner 2 µM)
How it was run: as §1

[4] = compound: CC1(C)CCC(CN2CCN(c3ccc(C(=O)NS(=O)(=O)c4ccc(NCC5CCOCC5)c([N+](=O)[O-])c4)c(Oc4cnc5[nH]ccc5c4)c3)CC2)=C(c2ccc(Cl)cc2)C1 [Venetoclax] + CC1(C)CCC(c2ccc(Cl)cc2)=C(CN2CCN(c3ccc(C(=O)NS(=O)(=O)c4ccc(N[C@H](CCN5CCOCC5)CSc5ccccc5)c(S(=O)(=O)C(F)(F)F)c4)cc3)CC2)C1 [Navitoclax] (partner 0.5 µM)
How it was run: as §1

## UMC-11
[1]; first compound 0.01 µM
  relative viability: 0.439
[1]; first compound 0.03162 µM
  relative viability: 0.46
[1]; first compound 0.1 µM
  relative viability: 0.465
[1]; first compound 0.3162 µM
  relative viability: 0.461
[1]; first compound 1 µM
  relative viability: 0.428
[2]; first compound 0.02 µM
  relative viability: 0.273
[2]; first compound 0.06325 µM
  relative viability: 0.311
[2]; first compound 0.2 µM
  relative viability: 0.3
[2]; first compound 0.6325 µM
  relative viability: 0.314
[3]; first compound 0.02 µM
  relative viability: 0.954
[3]; first compound 0.06325 µM
  relative viability: 0.897
[3]; first compound 0.2 µM
  relative viability: 0.972
[3]; first compound 0.6325 µM
  relative viability: 1.02
[4]; first compound 0.01 µM
  relative viability: 0.307
[4]; first compound 0.03162 µM
  relative viability: 0.31
[4]; first compound 0.1 µM
  relative viability: 0.255
[4]; first compound 0.3162 µM
  relative viability: 0.284
[4]; first compound 1 µM
  relative viability: 0.249
